Common to all, as to assay: DSF 100 kinase selectivity screen;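 on dTm: compound tested at 20 µM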
Common to all, as to assay type: binding

Test [1] addresses T1, ~100 representative kinases (Homo sapiens, UniProt Q13873).
T1 construct: Recombinant protein kinase domains with a concentration of 2 μM
T1 sequence (Q13873 27-1038): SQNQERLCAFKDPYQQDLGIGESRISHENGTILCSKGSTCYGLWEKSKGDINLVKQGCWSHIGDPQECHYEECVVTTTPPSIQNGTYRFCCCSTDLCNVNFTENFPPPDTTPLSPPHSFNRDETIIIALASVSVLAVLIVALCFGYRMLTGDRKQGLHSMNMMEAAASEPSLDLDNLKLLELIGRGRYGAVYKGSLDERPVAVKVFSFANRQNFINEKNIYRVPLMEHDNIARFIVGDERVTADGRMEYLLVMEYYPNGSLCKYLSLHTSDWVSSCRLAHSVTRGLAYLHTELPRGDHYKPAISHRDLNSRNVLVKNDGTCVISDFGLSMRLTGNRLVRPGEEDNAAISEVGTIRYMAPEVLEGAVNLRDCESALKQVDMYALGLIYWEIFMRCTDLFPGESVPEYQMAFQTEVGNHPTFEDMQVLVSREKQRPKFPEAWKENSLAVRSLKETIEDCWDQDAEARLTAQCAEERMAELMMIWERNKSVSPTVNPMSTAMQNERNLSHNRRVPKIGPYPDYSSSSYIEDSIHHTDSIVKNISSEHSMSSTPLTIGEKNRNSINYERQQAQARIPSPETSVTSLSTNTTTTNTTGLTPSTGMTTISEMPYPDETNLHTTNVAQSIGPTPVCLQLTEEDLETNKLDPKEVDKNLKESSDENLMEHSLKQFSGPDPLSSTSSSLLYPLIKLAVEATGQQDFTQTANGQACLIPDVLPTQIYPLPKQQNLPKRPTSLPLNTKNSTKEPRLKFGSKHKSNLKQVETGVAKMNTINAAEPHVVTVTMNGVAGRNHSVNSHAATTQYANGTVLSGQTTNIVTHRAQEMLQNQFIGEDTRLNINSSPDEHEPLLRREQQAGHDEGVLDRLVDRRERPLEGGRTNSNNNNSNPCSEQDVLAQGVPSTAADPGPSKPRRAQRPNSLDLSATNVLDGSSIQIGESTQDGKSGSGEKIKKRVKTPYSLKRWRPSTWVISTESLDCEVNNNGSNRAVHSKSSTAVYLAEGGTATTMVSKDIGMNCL
To be noted: Protein BMPR2; average of three replicates. An outline of the steps:
(§1)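 Each kinase domain, at 2 μM, is mixed with 20 μM test compound and SYPRO Orange in Hepes (20 mM, pH 7.5) with 500 mM NaCl. Temperature is then raised at 3°C/min and fluorescence-monitored unfolding yields the melting temperature change, ΔTm in degrees Celsius.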

The target of test [2] is T2, ~100 representative kinases (Homo sapiens, UniProt P21675).
T2 construct: Recombinant protein kinase domains with a concentration of 2 μM
To be noted: Protein TAF1; DSF; average of three replicates. An outline of the steps:
as §1

For test [3], the system named is ~100 representative kinases. To be noted: for dTm: Protein BRD, average of three replicates. The essentials: as §1
The target of test [4] is T3, ~100 representative kinases (Homo sapiens, UniProt Q12866).
T3 construct: Recombinant protein kinase domains with a concentration of 2 μM
T3 sequence (Q12866 21-999): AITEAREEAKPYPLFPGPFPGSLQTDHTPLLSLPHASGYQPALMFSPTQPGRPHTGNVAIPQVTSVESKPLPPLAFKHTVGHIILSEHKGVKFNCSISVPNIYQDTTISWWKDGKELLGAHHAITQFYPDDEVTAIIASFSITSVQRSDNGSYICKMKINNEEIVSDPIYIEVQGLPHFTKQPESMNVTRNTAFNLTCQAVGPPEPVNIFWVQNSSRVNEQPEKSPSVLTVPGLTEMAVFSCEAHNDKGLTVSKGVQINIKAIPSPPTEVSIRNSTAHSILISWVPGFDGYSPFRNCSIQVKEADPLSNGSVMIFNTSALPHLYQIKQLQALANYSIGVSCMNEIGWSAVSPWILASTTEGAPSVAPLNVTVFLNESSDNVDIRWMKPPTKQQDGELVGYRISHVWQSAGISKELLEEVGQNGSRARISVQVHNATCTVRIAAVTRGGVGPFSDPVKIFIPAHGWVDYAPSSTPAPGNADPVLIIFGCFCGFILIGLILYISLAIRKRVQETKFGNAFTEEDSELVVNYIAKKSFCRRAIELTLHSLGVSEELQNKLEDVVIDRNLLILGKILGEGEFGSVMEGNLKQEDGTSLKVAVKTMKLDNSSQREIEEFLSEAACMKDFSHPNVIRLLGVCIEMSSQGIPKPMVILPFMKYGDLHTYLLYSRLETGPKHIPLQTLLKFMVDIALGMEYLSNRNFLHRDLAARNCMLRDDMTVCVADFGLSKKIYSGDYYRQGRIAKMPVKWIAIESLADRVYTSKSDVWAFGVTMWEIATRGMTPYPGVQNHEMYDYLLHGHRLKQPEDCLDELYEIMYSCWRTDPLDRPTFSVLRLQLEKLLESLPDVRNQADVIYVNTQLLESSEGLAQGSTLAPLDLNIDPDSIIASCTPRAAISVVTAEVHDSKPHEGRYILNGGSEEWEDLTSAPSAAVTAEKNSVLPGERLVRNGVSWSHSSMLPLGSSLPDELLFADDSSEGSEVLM
Particulars: protein MERTK; average of three replicates. An outline of the steps: as §1

For test [5], the target named is T4, ~100 representative kinases (Homo sapiens, UniProt O75582).
T4 construct: Recombinant protein kinase domains with a concentration of 2 μM
Particulars: Protein RPS6KA5; DSF; average of three replicates. The essentials: as §1

In test [6] the target is T5, ~100 representative kinases (Homo sapiens, UniProt Q9Y6E0).
T5 construct: Recombinant protein kinase domains with a concentration of 2 μM
Particulars: protein MST3; average of three replicates. The essentials:
as §1

Test [7] addresses T6, ~100 representative kinases (Homo sapiens, UniProt P15735).
T6 construct: Recombinant protein kinase domains with a concentration of 2 μM
T6 sequence (P15735 1-406): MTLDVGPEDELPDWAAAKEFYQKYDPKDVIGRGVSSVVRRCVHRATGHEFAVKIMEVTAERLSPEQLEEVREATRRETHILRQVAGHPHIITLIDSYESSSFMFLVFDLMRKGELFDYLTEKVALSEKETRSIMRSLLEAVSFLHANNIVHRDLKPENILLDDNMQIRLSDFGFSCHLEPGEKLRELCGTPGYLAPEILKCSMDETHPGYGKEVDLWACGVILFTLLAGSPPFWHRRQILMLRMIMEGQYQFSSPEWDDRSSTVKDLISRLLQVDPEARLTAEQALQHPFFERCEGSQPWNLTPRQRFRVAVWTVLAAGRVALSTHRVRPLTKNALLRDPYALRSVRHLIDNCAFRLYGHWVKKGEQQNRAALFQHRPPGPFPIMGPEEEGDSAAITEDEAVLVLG
Particulars: protein PHKG2; average of three replicates. An outline of the steps: as §1

The mark [8] stands for this setting: number of kinases with thermal shift >5 K divided by total number of kinases screened.
The mark [9] stands for this setting: number of proteins of the DSF panel with dTm >5K.
Where [10] appears, read: selectivity score: # >5K divided by # of proteins tested in the DSF panel.

Read-outs that look alike come from different tables or passages of the source.

T5 sequence (Q9Y6E0 whole entry, the tested form may be a part): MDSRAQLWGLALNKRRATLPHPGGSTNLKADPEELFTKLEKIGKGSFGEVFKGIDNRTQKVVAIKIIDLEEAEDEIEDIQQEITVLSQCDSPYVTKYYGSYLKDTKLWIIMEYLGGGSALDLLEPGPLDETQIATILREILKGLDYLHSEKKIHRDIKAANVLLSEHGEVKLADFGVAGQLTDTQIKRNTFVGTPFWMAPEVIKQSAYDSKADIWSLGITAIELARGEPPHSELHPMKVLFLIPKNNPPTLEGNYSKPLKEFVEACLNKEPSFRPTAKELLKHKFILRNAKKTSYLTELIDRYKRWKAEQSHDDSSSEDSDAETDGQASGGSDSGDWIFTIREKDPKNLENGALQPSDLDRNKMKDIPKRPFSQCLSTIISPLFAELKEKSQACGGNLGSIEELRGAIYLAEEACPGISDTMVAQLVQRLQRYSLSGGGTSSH
T2 sequence (P21675 whole entry, the tested form may be a part): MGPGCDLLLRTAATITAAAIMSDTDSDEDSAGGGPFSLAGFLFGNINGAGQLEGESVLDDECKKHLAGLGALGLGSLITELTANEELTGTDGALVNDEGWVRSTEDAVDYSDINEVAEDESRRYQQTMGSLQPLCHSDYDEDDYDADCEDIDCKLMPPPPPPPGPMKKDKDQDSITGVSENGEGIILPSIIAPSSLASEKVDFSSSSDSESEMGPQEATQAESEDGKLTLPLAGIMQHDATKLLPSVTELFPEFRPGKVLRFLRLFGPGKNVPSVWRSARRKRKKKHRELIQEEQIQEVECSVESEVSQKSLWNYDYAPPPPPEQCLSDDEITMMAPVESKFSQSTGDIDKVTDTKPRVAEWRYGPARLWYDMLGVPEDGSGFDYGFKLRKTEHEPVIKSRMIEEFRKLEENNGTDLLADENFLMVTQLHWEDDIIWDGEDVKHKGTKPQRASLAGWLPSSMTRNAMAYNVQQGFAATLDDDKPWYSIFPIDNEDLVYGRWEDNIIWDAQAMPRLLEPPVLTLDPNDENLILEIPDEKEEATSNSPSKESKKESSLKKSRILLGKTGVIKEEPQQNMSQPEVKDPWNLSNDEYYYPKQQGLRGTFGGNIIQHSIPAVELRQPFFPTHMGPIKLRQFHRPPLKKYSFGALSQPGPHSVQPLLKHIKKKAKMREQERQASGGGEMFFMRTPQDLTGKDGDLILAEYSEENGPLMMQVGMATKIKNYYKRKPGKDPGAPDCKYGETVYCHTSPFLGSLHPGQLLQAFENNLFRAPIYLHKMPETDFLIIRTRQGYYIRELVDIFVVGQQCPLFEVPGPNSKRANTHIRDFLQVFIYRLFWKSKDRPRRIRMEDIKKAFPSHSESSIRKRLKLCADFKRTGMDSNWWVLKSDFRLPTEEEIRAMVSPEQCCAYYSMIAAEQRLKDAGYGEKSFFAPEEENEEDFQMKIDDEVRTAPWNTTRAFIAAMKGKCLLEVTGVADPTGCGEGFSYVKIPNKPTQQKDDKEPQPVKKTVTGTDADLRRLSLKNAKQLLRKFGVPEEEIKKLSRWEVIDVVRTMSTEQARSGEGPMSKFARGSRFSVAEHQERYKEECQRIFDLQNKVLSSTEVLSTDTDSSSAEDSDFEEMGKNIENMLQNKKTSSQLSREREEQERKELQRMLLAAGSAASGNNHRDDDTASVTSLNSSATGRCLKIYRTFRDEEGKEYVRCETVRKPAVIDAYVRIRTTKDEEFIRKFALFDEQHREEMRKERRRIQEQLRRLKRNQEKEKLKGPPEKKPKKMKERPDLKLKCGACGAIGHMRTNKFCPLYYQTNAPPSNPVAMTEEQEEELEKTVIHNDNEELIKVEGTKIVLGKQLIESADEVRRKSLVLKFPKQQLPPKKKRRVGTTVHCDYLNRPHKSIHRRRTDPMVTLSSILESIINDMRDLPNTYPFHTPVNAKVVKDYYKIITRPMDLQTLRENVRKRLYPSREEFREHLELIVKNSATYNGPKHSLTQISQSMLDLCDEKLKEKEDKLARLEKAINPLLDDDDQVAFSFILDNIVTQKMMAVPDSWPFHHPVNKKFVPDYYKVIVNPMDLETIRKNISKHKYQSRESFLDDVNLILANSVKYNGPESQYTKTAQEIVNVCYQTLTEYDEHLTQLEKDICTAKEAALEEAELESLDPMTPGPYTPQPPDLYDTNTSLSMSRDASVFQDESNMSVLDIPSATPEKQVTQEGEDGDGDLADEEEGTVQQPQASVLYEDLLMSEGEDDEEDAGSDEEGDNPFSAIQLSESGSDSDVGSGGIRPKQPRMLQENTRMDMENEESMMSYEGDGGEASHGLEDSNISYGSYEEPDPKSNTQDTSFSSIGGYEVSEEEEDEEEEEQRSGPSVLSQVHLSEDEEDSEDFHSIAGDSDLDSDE
T4 sequence (O75582 whole entry, the tested form may be a part): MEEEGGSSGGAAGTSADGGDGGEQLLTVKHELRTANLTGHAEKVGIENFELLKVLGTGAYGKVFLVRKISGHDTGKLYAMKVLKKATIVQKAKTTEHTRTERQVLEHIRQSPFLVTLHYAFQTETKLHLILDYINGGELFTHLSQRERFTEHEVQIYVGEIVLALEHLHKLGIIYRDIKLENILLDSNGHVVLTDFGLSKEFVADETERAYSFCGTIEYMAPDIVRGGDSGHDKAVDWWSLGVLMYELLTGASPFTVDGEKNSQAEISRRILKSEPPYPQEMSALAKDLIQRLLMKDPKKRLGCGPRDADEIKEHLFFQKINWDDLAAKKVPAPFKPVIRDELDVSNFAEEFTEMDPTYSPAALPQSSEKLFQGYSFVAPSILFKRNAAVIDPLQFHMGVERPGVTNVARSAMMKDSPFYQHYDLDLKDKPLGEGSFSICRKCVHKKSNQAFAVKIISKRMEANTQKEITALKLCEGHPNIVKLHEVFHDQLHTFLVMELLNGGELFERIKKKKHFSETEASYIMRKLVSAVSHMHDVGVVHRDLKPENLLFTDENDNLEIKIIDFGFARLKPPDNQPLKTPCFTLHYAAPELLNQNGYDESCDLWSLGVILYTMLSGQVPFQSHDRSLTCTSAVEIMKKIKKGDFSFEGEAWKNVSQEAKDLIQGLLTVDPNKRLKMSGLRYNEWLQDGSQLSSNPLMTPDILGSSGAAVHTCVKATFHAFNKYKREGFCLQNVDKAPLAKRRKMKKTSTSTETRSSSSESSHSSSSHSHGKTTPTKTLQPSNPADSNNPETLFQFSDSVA

For the molecule `Cc1ccc(C(=O)Nc2ccc(CN3CCN(C)CC3)c(C(F)(F)F)c2)cc1C#Cc1c[nH]c2ncnc(N3CCOCC3)c12` [Compound 1], the dTm is reported as 1.36 K in test [1]; 0.36 K in test [2]; 0.03 K in test [3]; 3.23 K in test [4]; 1.58 K in test [5]; 3.57 K in test [6]. Further, the dTm in test [7] is given as -0.17 K. The “S(5K)” value in test [3] (setting [8]) was 0.20; in test [3] (setting [10]), 0.200. The “# >5K” value in test [3] (setting [9]) worked out at 21.

Turning to `O=C(Nc1ccc(F)cc1)C1(C(=O)Nc2cccc(-c3c[nH]c4ncnc(N5CCOCC5)c34)c2)CC1` [Compound 2], the dTm is on record as 0.92 K in test [1]; 0.23 K in test [2]; -1.00 K in test [3]; 2.38 K in test [4]; 4.64 K in test [5]; 7.19 K in test [6]. The molecule also displayed a dTm in test [7] of 2.27 K. For the same molecule, the results for the “S(5K)” value in test [3] (setting [8]) and in test [3] (setting [10]) were 0.28 and 0.280, respectively. Also, the “# >5K” value in test [3] (setting [9]) was 28.

For the molecule `O=C(Nc1cccc(-c2c[nH]c3ncnc(N4CCOCC4)c23)c1)c1cccn(-c2ccc(F)cc2)c1=O` [Compound 4], the dTm in test [1] is 0.82 K; in test [2] it was -0.36 K; in test [3] it was -1.99 K; in test [4], 5.74 K; in test [5], -0.28 K; in test [6] it was 3.28 K. In test [7], this molecule displayed a dTm of 0.20 K. Also, the “S(5K)” value was 0.33 in test [3] (setting [8]) and 0.330 in test [3] (setting [10]). The “# >5K” value in test [3] (setting [9]) is 33.

In the case of `Cc1cc(NC(=O)C2(C(=O)Nc3ccc(F)cc3)CC2)cc(-c2c[nH]c3ncnc(N4CCOCC4)c23)c1` [Compound 6], the dTm in test [1] is 0.52 K; in test [2], 0.30 K; in test [3], 0.73 K; in test [4], 1.86 K; in test [5], 3.89 K; in test [6], -0.29 K. In test [7], this molecule came in with a dTm of 0.93 K. Besides, the “S(5K)” value in test [3] (setting [8]) is listed as 0.13; in test [3] (setting [10]) it was 0.125. For the same molecule, in test [3] (setting [9]), the “# >5K” value worked out at 13.

Consider `O=C(Nc1cccc(-c2c[nH]c3ncnc(N4CCOCC4)c23)c1)C1(C(=O)Nc2cccc3c2CCC3)CC1` [Compound 11], for which the dTm is reported as 0.44 K in test [1]; -5.02 K in test [2]; 1.00 K in test [3]; 2.34 K in test [4]; 0.69 K in test [5]; -2.04 K in test [6]. In test [7], this molecule had a dTm of 0.68 K. Further, the “S(5K)” value in test [3] (setting [8]) is 0.15; in test [3] (setting [10]) it was 0.154. In test [3] (setting [9]), the “# >5K” value was 16.

With `O=C(Nc1ccccc1)C1(C(=O)Nc2cccc(-c3c[nH]c4ncnc(N5CCOCC5)c34)c2)CC1` [Compound 12], the dTm in test [1] was 1.02 K; in test [2], -0.82 K; in test [3], -0.35 K; in test [4], 2.64 K; in test [5], 6.52 K; in test [6] it was 3.58 K. Further, in test [7], the dTm came to 1.25 K. Moreover, the “S(5K)” value is listed as 0.26 in test [3] (setting [8]) and 0.260 in test [3] (setting [10]). Moreover, the “# >5K” value in test [3] (setting [9]) is given as 26.

In the case of `O=C(Nc1ccc(Cl)cc1)C1(C(=O)Nc2cccc(-c3c[nH]c4ncnc(N5CCOCC5)c34)c2)CC1` [Compound 13], the dTm in test [1] is on record as 1.26 K; in test [2] it was 1.29 K; in test [3], 1.19 K; in test [4], 3.45 K; in test [5], 5.83 K; in test [6] it was 4.95 K. Further, the dTm in test [7] is reported as 3.23 K. The “S(5K)” value came out at 0.37 in test [3] (setting [8]) and 0.370 in test [3] (setting [10]). In addition, in test [3] (setting [9]), the “# >5K” value is on record as 37.

On to `Cc1ccc(C(=O)Nc2ccc(CN3CCN(C)CC3)c(C(F)(F)F)c2)cc1C#Cc1cnc2[nH]ncc2c1` [GZD-824, reference compound], for which the dTm is -0.68 K in test [2]; -0.37 K in test [3]; 5.77 K in test [4]; 8.48 K in test [5]; 10.01 K in test [6]; -0.11 K in test [7]. Further, the “# >5K” value in test [3] is recorded as 31. For the same molecule, the “S(5K)” value in test [3] was 0.313.

Regarding `Cc1ccc(C(=O)Nc2ccc(CN3CCN(C)CC3)c(C(F)(F)F)c2)cc1C#Cc1cnc2cccnn12` [Ponatinib, reference compound], the dTm in test [2] is -0.60 K. In test [3], the “# >5K” value was 28 and the “S(5K)” value worked out at 0.272. The dTm in test [4] turned out to be 4.58 K.

`CNC(=O)c1cc(Oc2ccc(NC(=O)Nc3cc(C(C)(C)C)nn3-c3ccc4ncccc4c3)c(F)c2)ccn1` [Rebastinib, reference compound]: the results for the dTm in test [1] and in test [2] were -0.70 K and -2.54 K, respectively.

As to `CN[C@@H]1C[C@H]2O[C@@](C)([C@@H]1OC)n1c3ccccc3c3c4c(c5c6ccccc6n2c5c31)C(=O)NC4` [Staurosporine], the dTm in test [1] is 3.02 K; in test [2], 0.52 K; in test [4], 6.40 K; in test [5], 13.79 K.

These data come from publication PMC12136037, “Type II kinase inhibitors that target Parkinson’s disease–associated LRRK2” (Science Advances, 2025).
